Results reported in patent publication US20240225971A1 (Genomatica, Inc., priority 2021, published 2024).
In brackets after ≈: the same amount, converted by molar mass. Read-outs that look alike come from different tables or passages of the source. Blank lines part the entries; values can stand above or below the molecule they belong to.

Tests used:
microorganisms = assay: Minimum Inhibitory Concentration (MIC) testing; type: cell-based
[1] = Water solubility at 25° C. of fragrance ingredients; conditions: for Water Solubility: 25° C.
Description: (§1) Also included is the molecular weight of each of the fragrance ingredients. Not determinable (ND).

[2] = Solubility of fragrance ingredients in bioderived 1,3-BG (visual inspection); conditions: 10% ingredient in bioderived 1,3-BG; excellent, good, moderate, poor, or none
Protocol: (§2) Clarity for each of the fragrance ingredients (10% in bioderived 1,3-BG) was determined by visual observations after compounding and blending the fragrance ingredient with bioderived 1,3-BG and identified as clear, slightly haze, cloudy, particles, or separation.
(§3) Clarity for each of the fragrance ingredients (at 1% in bioderived 1,3-BG) was determined by visual observations after compounding and blending the fragrance ingredient with bioderived 1,3-BG and identified as clear, slightly haze, cloudy, particles, or separation.

physchem = assay: physchem
Description: The term “fragrance composition” or “composition,” as used herein, represents a composition containing one or more fragrance ingredients described here and formulated with a physiologically acceptable diluent or solvent, used interchangeably here. In a fragrance composition, or composition that has a fragrance, such as a perfume, 20%-40% of the observable liquid may be comprised of a diluent, i.e., the delivery system for scents of the fragrance ingredients. The “log P” value, as used here, indicates whether a substance or fragrance ingredient will be absorbed by humans, animals, plants, or living tissue; diffused or disseminated by water.
as §1

[3] = Clarity of fragrance ingredient in bioderived 1,3-BG by visual observation
Protocol: as §2, §3

[4] = Vapor pressure of fragrance ingredients
Description: as §1

[5] = Flash point of fragrance ingredients; type: physicochemical
Description: as §1

[6] = Repeated Insult Patch Test; type: in vivo, human
Protocol: Prior to the initiation of the study, each jar containing the test material received a N2 blanket conducted by the Analytical Department at Consumer Product Testing Company.
The upper back between the scapulae served as the treatment area. Approximately 0.2 ml of the test material, or an amount sufficient to cover the contact surface, was applied to the 1″×1″ absorbent pad portion of a clear adhesive dressing. This was then applied to the appropriate treatment site to form a semi-occlusive patch.
Erythema was scored numerically according to the key in TABLE 16. If present, additional Dermal Sequelae were indicated by the appropriate letter code and a numerical value for severity was assigned.
Patches were applied three (3) times per week (e.g., Monday, Wednesday, and Friday) for a total of nine (9) applications. The site was marked to ensure the continuity of patch application. Following supervised removal and scoring of the first Induction patch, participants were instructed to remove all subsequent Induction patches at home, twenty-four hours after application. The evaluation of this site was made again just prior to re-application. If a participant was unable to report for an assigned test day, one (1) makeup day was permitted. This day was added to the Induction period.
Applications were discontinued for the remainder of this test phase, if a moderate (2-level) reaction was observed on this new test site. Applications would also be discontinued if marked (3-level) or severe (4-level) reactivity was noted.
Rest periods consisted of one day following each Tuesday and Thursday removal, and two days following each Saturday removal.
Approximately two (2) weeks after the final Induction patch application, a Challenge patch was applied to a virgin test site adjacent to the original Induction patch site, following the same procedure described for the Induction Phase. The Challenge patch was removed and the site scored at the clinic on Day 1 and Day 3 post-application.

[7] = Technical quality analysis (viscosity, precipitation, color, visual clarity, skin testing)
Protocol: Color changes were noted if there were any color variation resulting from the addition of fragrance ingredient in diluent. For select fragrance ingredients, skin testing was performed. Specifically, in the first round of testing, skin odor evaluation was performed on an interim basis for selective ingredients.

[8] = 10% ingredient in bioderived 1,3-BG, clear, slightly haze, cloudy, particles, or separation

Molecule: OCCCO [1,3-PG, 1,3-Propylene Glycol]
MIC A. brasiliensis (microorganisms; A. brasiliensis, concentration completely inhibiting microbial growth): >350 mg/mL
MIC C. albicans (microorganisms; C. albicans, concentration completely inhibiting microbial growth): 250 mg/mL (≈ 3290 mM)
MIC E. coli (microorganisms; E. coli, concentration completely inhibiting microbial growth): 225 mg/mL (≈ 2960 mM)
MIC P. aeruginosa (microorganisms; P. aeruginosa, concentration completely inhibiting microbial growth): 200 mg/mL (≈ 2630 mM)
MIC S. aureus (microorganisms; S. aureus, concentration completely inhibiting microbial growth): 300 mg/mL (≈ 3940 mM)

Molecule: CCCc1ccc(O)c(OC)c1 [Dihydro Eugenol]
Water Solubility [1]: 228.000 µg/mL
Solubility 10% [2]: Good
logP (physchem): 2.39
Clarity 10% [3, 8]: Clear
Vapor Pressure [4]: 0.006 mm hg
Flash Point [5]: 100 °C

Water Solubility [1]: 91.720 µg/mL
Solubility 10% [2]: Good
logP (physchem): 2.653
Clarity 10% [3, 8]: Clear
Vapor Pressure [4]: 0.001 mm hg
Flash Point [5]: 148 °C
Molecule: CCCCCC1C(=O)CCC1CC(=O)OC (stereo not shown) [Hedione]

solubility ([1]; 25 °C, water): 2.38 µg/mL (≈ 0.0109 mM)
logP (physchem): 3.77
Clarity 10% [3, 8]: Clear
Vapor Pressure [4]: 0.000358 mm hg
Flash Point [5]: 110 °C
Molecule: C=C(C)[C@@H]1CCC2=CC(=O)C[C@@H](C)[C@]2(C)C1 [Nootkatone]

Molecule: CCC(CC)C(=O)N(C)c1cccc(C)c1 [Paradisamide]
Water Solubility [1]: 46.430 µg/mL
logP (physchem): 3.295
Clarity 10% [3, 8]: Clear
Vapor Pressure [4]: 0.0038 mm hg
Flash Point [5]: 138 °C

Molecule: CC(=O)OC(C)(C)C1CC=C(C)CC1 (stereo not shown) [Terpinyl Acetate]
Water Solubility [1]: 18.970 µg/mL
logP (physchem): 3.59
Clarity 1% [3]: Clear
Vapor Pressure [4]: 0.058 mm hg
Flash Point [5]: 100 °C

Molecule: CC(O)CCO (stereo not shown) [bioBG, 1,3-butylene glycol]
adverse events ([6]; 40% dilution in water): no adverse events
Virgin Challenge Site Day 1* skin reaction score ([6]; bioBG diluted to 40%, human subjects, Challenge patch, Day 1 post-application, supervised removal, one line per subject): 0
Virgin Challenge Site Day 3 skin reaction score ([6]; bioBG diluted to 40%, human subjects, Challenge patch, Day 3 post-application, one line per subject): 0
Induction Phase 2 skin reaction score ([6]; bioBG diluted to 40%, human subjects, Induction reading 2, one line per subject): 0
Induction Phase 3 skin reaction score ([6]; bioBG diluted to 40%, human subjects, Induction reading 3, one line per subject): 0
Induction Phase 4 skin reaction score ([6]; bioBG diluted to 40%, human subjects, Induction reading 4, one line per subject): 0
Induction Phase 5 skin reaction score ([6]; bioBG diluted to 40%, human subjects, Induction reading 5, one line per subject): 0
Induction Phase 6 skin reaction score ([6]; bioBG diluted to 40%, human subjects, Induction reading 6, one line per subject): 0
Induction Phase 7 skin reaction score ([6]; bioBG diluted to 40%, human subjects, Induction reading 7, one line per subject): 0
Induction Phase 8 skin reaction score ([6]; bioBG diluted to 40%, human subjects, Induction reading 8, one line per subject): 0
Induction Phase 9 skin reaction score ([6]; bioBG diluted to 40%, human subjects, Induction reading 9, one line per subject): 0
Induction Phase Day 1* skin reaction score ([6]; bioBG diluted to 40%, human subjects, first Induction patch, supervised removal, one line per subject): 0
skin properties when applied to skin ([6]; up to a concentration of 40%): non-irritating, non-sensitizing, and/or non-allergenic
visual clarity compared to DPG, BB, IPM [7]: exceptional visual clarity with a crystal clear appearance
viscosity ([7]; observed with the different fragrance ingredients): very consistent
MIC (microorganisms; Escherichia coli, E. coli, concentration completely inhibiting microbial growth): 100 mg/mL (≈ 1110 mM)
inhibition of microbial growth in MIC tests (microorganisms; compared to 1,3-PG and glycerin): increased ability to inhibit microbial growth compared to 1,3-Propylene Glycol (1,3-PG) and glycerin

Molecule: Caryophyllene
Water Solubility [1]: 0.050 µg/mL
logP (physchem): 6.3
Clarity 1% [3]: Slightly Haze
Clarity 10% [3]: Cloudy
Vapor Pressure [4]: 0.013 mm hg
Flash Point [5]: 16 °C
